Test results reported in patent US20200290950A1, “ALKAMIDE COMPOUNDS AND USES THEREOF” (NORTH CAROLINA STATE UNIVERSITY, priority 2017, published 2020).

System: Jurkat T cells
Assay: Fluo-4 calcium assay, Jurkat cells
Format: cell-based
Conditions: 1 μM A23187, 100 μM A15, at 1 min
Procedure: FIGS. 4A-4D. A15 inhibits A23187-stimulated calcium influx in RAW 264.7 and Jurkat cells. RAW 264.7 (FIG. 4A-4B) or Jurkat cells (FIG. 4C-4D) were loaded with fluo-4 AM using the Fluo-4 AM Direct™ Calcium Assay Kit and fluorescence was measured on a microplate reader. Cells were stimulated with 1 μM A23187 in combination with vehicle only or 100 μM A15. Bar graphs represent the means±SEM of the Δ in RFU's at 1 min post-A23187 stimulation from 3 independent experiments. Statistical analysis was performed using an unpaired Student's t-test, *p<0.05.
RBL-2H3, BMMC, RAW 264.7, or Jurkat cells were plated in clear-bottom, black, 96-well plates (BioExpress, Kaysville, Utah) and incubated overnight with media only or media containing IgE anti-DNP. […] Prior to stimulation, baseline fluorescent readings were measured from triplicate wells in 5 s intervals for 1 min using a Synergy HT microplate reader with 485/20 nm excitation and 528/20 nm emission filters. Cells were then treated with either 1 μM A23187 or 50 ng/mL DNP-BSA prepared in calcium- and magnesium-containing or calcium- and magnesium-free HBSS with 20 mM HEPES, and fluorescence was measured in 10 s intervals for 2 min. […] The average baseline fluorescence of each well was subtracted from the stimulated fluorescent values to calculate the change (Δ) in RFU's and graphed as shown.

CCCCCCC/C=C/C=C/C(=O)NCC(C)C [A15, (2E,4E)-N-Isobutyldodeca-2,4-dienamide]
suppression of calcium influx: 43.6%
